What is called IC50 is the point on the concentration scale where inhibition reaches its midpoint.

The text below walks through data of PMC6274279, “Novel Cholinesterase Inhibitors Based on O-Aromatic N,N-Disubstituted Carbamates and Thiocarbamates” (Molecules, 2016).

Where two headings read alike, the source gives them in different places. Some results are limits rather than exact numbers.

The target in one data set is T1, AChE from electric eel (Electrophorus electricus, UniProt O42275).
T1 construct: Acetylcholinesterase was obtained from electric eel (Electrophorus electricus L.); from tissue
T1 sequence (O42275 24-633): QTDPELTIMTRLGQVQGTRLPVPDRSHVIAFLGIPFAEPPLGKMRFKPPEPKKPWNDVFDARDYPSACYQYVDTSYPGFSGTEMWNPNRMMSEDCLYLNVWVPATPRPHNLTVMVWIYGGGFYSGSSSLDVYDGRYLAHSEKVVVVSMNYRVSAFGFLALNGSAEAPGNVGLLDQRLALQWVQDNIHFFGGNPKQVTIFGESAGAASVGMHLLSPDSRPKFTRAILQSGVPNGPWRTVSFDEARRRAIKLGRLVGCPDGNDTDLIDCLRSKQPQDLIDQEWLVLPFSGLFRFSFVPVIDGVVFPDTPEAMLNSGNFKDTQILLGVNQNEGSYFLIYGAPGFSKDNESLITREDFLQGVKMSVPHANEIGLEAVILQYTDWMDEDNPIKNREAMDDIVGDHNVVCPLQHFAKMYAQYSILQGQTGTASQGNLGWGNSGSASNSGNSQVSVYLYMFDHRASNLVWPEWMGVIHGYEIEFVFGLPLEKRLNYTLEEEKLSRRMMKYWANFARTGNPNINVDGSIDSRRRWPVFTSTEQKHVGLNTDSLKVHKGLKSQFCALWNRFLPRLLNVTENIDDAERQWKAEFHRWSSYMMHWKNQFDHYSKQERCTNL
Description: Acetylcholinesterase inhibition, spectrophotometric Ellman's method. The note with it: for Selectivity Index for AChE: ratio of cellular toxicity (HepG2 IC50) and IC50 for AChE. The data set is classed as biochemical, electric eel (Electrophorus electricus L.). The procedure:
(§1) The IC50 values were determined using the spectrophotometric Ellman’s method, which is a simple and rapid method to determine the SH and -S-S- groups content in proteins. This method is widely used for the evaluation of cholinesterase activity and screening the efficiency of ChE inhibitors. Cholinesterase activity is measured indirectly by quantifying the concentration of the 5-mercapto-2-nitrobenzoic acid ion formed in the reaction between the thiol reagent 5,5′-dithiobis(2-nitrobenzoic acid) and thiocholine, a product of substrate hydrolysis (i.e., acetylthiocholine, ATCh) by cholinesterases. Ellman’s method was modified slightly according to Zdrazilova et al..
(§2) The inhibitory potency of fifteen carbamates and five thiocarbamates was evaluated for AChE from electric eel and BChE from equine serum.
(§3) The IC50 values were determined using the spectrophotometric Ellman’s method. All of the tested compounds were dissolved in 0.01 M dimethyl sulphoxide and then diluted in demineralised water to 0.001 M and 0.0001 M. Ellman’s method was modified slightly according to Zdrazilova et al.. Acetylcholinesterase was obtained from electric eel (Electrophorus electricus L.) and butyrylcholinesterase was from equine serum.
In general terms: Ellman's reagent forms a yellow product with free thiols.

The target of a further data set is T2, BChE from equine serum (Equus caballus, UniProt P81908).
T2 construct: butyrylcholinesterase was from equine serum; from tissue; host or cells: equine serum
T2 sequence (P81908 whole entry): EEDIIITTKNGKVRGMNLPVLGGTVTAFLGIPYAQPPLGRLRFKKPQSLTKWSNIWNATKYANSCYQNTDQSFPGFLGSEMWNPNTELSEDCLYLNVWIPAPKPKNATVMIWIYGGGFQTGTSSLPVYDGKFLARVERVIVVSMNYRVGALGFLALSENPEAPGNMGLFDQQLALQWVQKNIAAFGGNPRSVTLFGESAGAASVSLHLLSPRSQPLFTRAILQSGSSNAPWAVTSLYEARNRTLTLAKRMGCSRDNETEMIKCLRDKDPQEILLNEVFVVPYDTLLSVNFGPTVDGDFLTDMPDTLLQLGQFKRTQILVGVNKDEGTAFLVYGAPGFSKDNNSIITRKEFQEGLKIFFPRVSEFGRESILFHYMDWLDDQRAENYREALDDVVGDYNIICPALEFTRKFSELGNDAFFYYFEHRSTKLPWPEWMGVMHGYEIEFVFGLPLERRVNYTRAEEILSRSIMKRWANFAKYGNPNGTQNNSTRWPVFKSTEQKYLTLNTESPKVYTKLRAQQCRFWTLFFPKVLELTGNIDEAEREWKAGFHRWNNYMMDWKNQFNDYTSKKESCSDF
Put plainly: Butyrylcholinesterase inhibition, spectrophotometric Ellman's method. Particulars: for Selectivity to BChE: IC50 for AChE/IC50 for BChE; for Selectivity Index for BChE: ratio of cellular toxicity (HepG2 IC50) and IC50 for BChE. The data set is classed as biochemical. The procedure:
as §1, §2, §3

Another data set relates to HepG2 cells. Particulars: cited from earlier work.
[1] abbreviates: cytotoxicity determined previously, read-out: IC50 for HepG2.
Where [2] appears, read: approximate value, read-out: IC50 values (cytotoxicity, HepG2).

Take `O=C(Nc1ccc(C(F)(F)F)cc1)c1cc(Cl)ccc1OC(=O)N(c1ccccc1)c1ccccc1` [4d]: the values for the IC50 against AChE from electric eel and at BChE from equine serum were 47.4 ± 2.78 µM and 49 ± 0.17 µM, respectively. The “Selectivity to BChE” value at BChE from equine serum is 1.0.
In the same order, the values of `O=C(Nc1ccc(F)cc1)c1cc(Cl)ccc1OC(=O)N(c1ccccc1)c1ccccc1` [3d] are 49 ± 3.88 µM, 15.63 ± 0.11 µM and 3.1.
For `CN(C(=O)Oc1ccc(Cl)cc1C(=O)Nc1ccc(Br)cc1)c1ccccc1` [2c, 2-[(4-bromophenyl)carbamoyl]-4-chlorophenyl methyl(phenyl)carbamate], the results for the IC50 on AChE from electric eel, against BChE from equine serum and in the data set on HepG2 cells (setting [1]) were 81.6 ± 2.92 µM, 4.3 ± 0.51 µM and 945 µM, respectively. Moreover, at AChE from electric eel, the “Selectivity Index for AChE” value is 11.6. Besides, on BChE from equine serum, the “Selectivity to BChE” value was 19.0.
Take `CN(C(=O)Oc1ccc(Cl)cc1C(=O)Nc1ccc(C(F)(F)F)cc1)c1ccccc1` [4c]: the IC50 against AChE from electric eel is 49.9 ± 2.76 µM; against BChE from equine serum it was 1.97 ± 0.02 µM; with HepG2 cells (setting [1]), more than 100 µM. For the same compound, at BChE from equine serum, the “Selectivity Index for BChE” value is reported as “˃50.8”.
`CN(C(=O)Oc1ccc(Cl)cc1C(=O)Nc1ccc(F)cc1)c1ccccc1` [3c]: on AChE from electric eel, half-maximal inhibition (IC50) required 62.5 ± 5.03 µM and the “Selectivity Index for AChE” value is listed as 8.2. Moreover, at BChE from equine serum, 7.34 ± 0.14 µM corresponded to half-maximal inhibition (IC50), the “Selectivity to BChE” value was found to be 8.5 and the “Selectivity Index for BChE” value is listed as 69.8. The IC50 with HepG2 cells (setting [1]) was 512 µM.
As to `O=C(Nc1ccc(Cl)cc1)c1cc(Cl)ccc1OC(=O)N(c1ccccc1)c1ccccc1` [1d], the results for the IC50 against AChE from electric eel and on BChE from equine serum were 54.8 ± 1.43 µM and 106 ± 3.64 µM, respectively.
With `CN(C)C(=O)Oc1ccc(Cl)cc1C(=O)Nc1ccc(C(F)(F)F)cc1` [4a, 4-chloro-2-{[4-(trifluoro-methyl)phenyl]carbamoyl}phenyl dimethylcarbamate], the IC50 was 49 ± 0.54 µM against AChE from electric eel, 28.1 ± 0.86 µM on BChE from equine serum, approximately 6000 µM with HepG2 cells (setting [2]) and 6510 µM in the data set on HepG2 cells (setting [1]). Moreover, on BChE from equine serum, the “Selectivity to BChE” value turned out to be 1.7.
`CN(C(=O)Oc1ccc(Cl)cc1C(=O)Nc1ccc(Cl)cc1)c1ccccc1` [1c]: 74.8 ± 2.95 µM corresponded to half-maximal inhibition at AChE from electric eel (IC50). Moreover, on BChE from equine serum, the IC50 turned out to be 4.2 ± 0.18 µM, the “Selectivity to BChE” value is 17.8 and the “Selectivity Index for BChE” value is 68.8. In addition, the half-inhibitory concentration (IC50) in the data set on HepG2 cells (setting [1]) was 289 µM.
With `CN(C)C(=S)Oc1ccc(Cl)cc1C(=O)Nc1ccc(F)cc1` [3b, O-{4-chloro-2-[(4-fluorophenyl)carbamoyl]phenyl} dimethylcarbamothioate], the IC50 at AChE from electric eel is 89.7 ± 4.68 µM. On BChE from equine serum, the IC50 was found to be 91.4 ± 5.45 µM and the “Selectivity to BChE” value was found to be 1.0.
Consider `CN(C)C(=S)Oc1ccc(Cl)cc1C(=O)Nc1ccc(C(F)(F)F)cc1` [4b], for which the IC50 against AChE from electric eel was found to be 42 ± 0.55 µM. At BChE from equine serum, it took 36.22 ± 0.28 µM to reach half-maximal inhibition (IC50), the “Selectivity to BChE” value was 1.2 and the “Selectivity Index for BChE” value is given as 1.9. In addition, the IC50 with HepG2 cells (setting [1]) was 67.3 µM.
Turning to `O=C(Nc1ccccc1)c1ccccc1OC(=O)N(c1ccccc1)c1ccccc1` [5d, 2-(phenylcarbamoyl)phenyl diphenylcarbamate], the IC50 against AChE from electric eel was 53.8 ± 4.26 µM; at BChE from equine serum, 1.6 ± 0.01 µM; in the data set on HepG2 cells (setting [1]) it was 211 µM. Further, the “Selectivity Index for BChE” value on BChE from equine serum is 131.9.
Compound `CN(C)C(=S)Oc1ccc(Cl)cc1C(=O)Nc1ccc(Br)cc1` [2b] showed an IC50 against AChE from electric eel of 59.1 ± 2.13 µM. Further, at BChE from equine serum, the IC50 came out at 54.64 ± 0.42 µM and the “Selectivity to BChE” value came out at 1.1.
As to `CN(C)C(=O)Oc1ccc(Cl)cc1C(=O)Nc1ccc(F)cc1` [3a, 4-chloro-2-[(4-fluorophenyl)carbamoyl]phenyl dimethylcarbamate], the IC50 is 76.2 ± 2.87 µM against AChE from electric eel and 311 ± 4.5 µM against BChE from equine serum.
In the same order, the values of `O=C(Nc1ccc(Br)cc1)c1cc(Cl)ccc1OC(=O)N(c1ccccc1)c1ccccc1` [2d] are 63.3 ± 0.95 µM and 145 ± 29 µM.
Take `CN(C)C(=S)Oc1ccccc1C(=O)Nc1ccccc1` [5b]: the IC50 against AChE from electric eel came to 61.9 ± 6.56 µM. On BChE from equine serum, the IC50 worked out at 26.6 ± 2.78 µM and the “Selectivity to BChE” value amounted to 2.3.
Take `CN(C)C(=O)Oc1ccc(Cl)cc1C(=O)Nc1ccc(Cl)cc1` [1a]: the figures for the IC50 on AChE from electric eel and against BChE from equine serum were 72.9 ± 1.06 µM and 88.4 ± 1.27 µM, respectively. Besides, the “Selectivity to BChE” value on BChE from equine serum came to 0.8.
In the case of `CN(C)C(=O)Oc1ccccc1C(=O)Nc1ccccc1` [5a], the IC50 was 57.7 ± 1.6 µM at AChE from electric eel, 83.6 ± 6.84 µM at BChE from equine serum, approximately 6000 µM in the data set on HepG2 cells (setting [2]) and 5990 µM in the data set on HepG2 cells (setting [1]). Further, the “Selectivity to BChE” value on BChE from equine serum came to 0.7. Besides, the “Selectivity Index for BChE” value at BChE from equine serum is reported as 71.6.
`CN(C)C(=O)Oc1ccc(Cl)cc1C(=O)Nc1ccc(Br)cc1` [2a]: it took 62.4 ± 1.36 µM to reach half-maximal inhibition against AChE from electric eel (IC50). Moreover, at BChE from equine serum, the IC50 turned out to be 54.21 ± 0.3 µM and the “Selectivity to BChE” value stood at 1.2.
In the same order, the values of `CN(C(=O)Oc1ccccc1C(=O)Nc1ccccc1)c1ccccc1` [5c] are 55 ± 2.46 µM, 11.4 ± 0.48 µM and 4.8.
Regarding `CN(C)C(=S)Oc1ccc(Cl)cc1C(=O)Nc1ccc(Cl)cc1` [1b, O-{4-Chloro-2-[(4-chlorophenyl)carbamoyl]phenyl} dimethylcarbamothioate], on AChE from electric eel, the IC50 was 39 ± 1.11 µM and the “Selectivity Index for AChE” value was 2.1. On BChE from equine serum, half-maximal inhibition (IC50) was put at 51.4 ± 1.65 µM, the “Selectivity to BChE” value was found to be 0.8 and the “Selectivity Index for BChE” value is given as 1.6. Besides, the IC50 with HepG2 cells (setting [1]) was 83.5 µM.
